Patent publication US7470543B2, “Methods for identifying ligands using competitive binding 1H NMR experiments” (Nerviano Medical Sciences S.r.l., priority 2002, dated 2008)

Key:
HSA (Sudlow site I) = target: T1, HSA (Sudlow site I) (Homo sapiens, UniProt P02768); experiment: doubly-selective R1-filtered and spin-echo 1H NMR competition binding, spy molecule warfarin; conditions: 25 μM, HSA 0 to 2.5 μM
T1 construct: Fatty acid free human serum albumin (A-3782) was purchased from Sigma and used without further purification; purchased Sigma A-3782
T1 sequence (P02768 25-609): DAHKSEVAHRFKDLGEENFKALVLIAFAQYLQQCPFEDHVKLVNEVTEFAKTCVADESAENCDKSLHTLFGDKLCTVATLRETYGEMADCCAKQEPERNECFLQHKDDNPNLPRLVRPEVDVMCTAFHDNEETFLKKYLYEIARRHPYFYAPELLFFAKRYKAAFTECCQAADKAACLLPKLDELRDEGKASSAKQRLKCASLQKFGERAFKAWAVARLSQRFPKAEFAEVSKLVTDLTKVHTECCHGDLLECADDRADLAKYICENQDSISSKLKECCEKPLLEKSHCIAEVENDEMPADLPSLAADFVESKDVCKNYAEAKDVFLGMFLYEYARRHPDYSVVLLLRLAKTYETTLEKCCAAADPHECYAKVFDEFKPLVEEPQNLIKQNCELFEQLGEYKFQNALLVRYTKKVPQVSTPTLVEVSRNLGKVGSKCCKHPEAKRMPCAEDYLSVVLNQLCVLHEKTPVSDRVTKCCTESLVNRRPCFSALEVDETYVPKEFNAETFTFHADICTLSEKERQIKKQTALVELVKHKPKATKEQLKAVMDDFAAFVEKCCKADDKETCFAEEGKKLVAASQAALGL

HSA [1] = target: T2, HSA (Homo sapiens, UniProt P02768); conditions: up to concentration of several hundred μM; cited from earlier work
T2 sequence (P02768 25-609): as above

HSA [2] = target: T2, HSA; experiment: previous NMR measurement of the low affinity second binding site for Trp; conditions: 20° C., measured previously by NMR
Excerpt: […]. J., 273, 641-644 (1991)) is somewhat larger. This small difference can probably be ascribed to the presence of a low affinity second binding site for Trp. […] Despite this complication, the values that are rapidly derived from the NMR screening experiments serve for most of the purposes in the early stages of drug discovery.

HSA [3] = target: T2, HSA; conditions: 20° C.; read-out: KD^(a) binding constant of L-Trp measured with equilibrium dialysis; cited from earlier work

| SMILES | binding of the control molecule to HSA (signal intensity as a function of protein concentration) (HSA (Sudlow site I)) | interaction with HSA (HSA [1]) | affinity for the low affinity second binding site (HSA [2]) | Kd (HSA [3]) [µM] |
| --- | --- | --- | --- | --- |
| Cc1ccc2[nH]cc(CC(N)C(=O)O)c2c1 (stereo not shown) [5-CH3 D,L Trp (2), 5-CH3 D,L Trp] | does not bind | does not interact with HSA |  |  |
| N[C@@H](Cc1c[nH]c2ccccc12)C(=O)O [Trp, tryptophan] |  |  | several hundreds | 23 |
